Results: US20220265671A1, “METHOD FOR TREATING STROKE BY USING TRICYCLIC DERIVATIVE” (Jeil Pharmaceutical Co., Ltd., priority 2019, published 2022)
“And” between values parts separate entries of the source, which are not always exact repeats. Identical values can stand only once.

Legend:
[1] = test system: patients with acute ischemic stroke; test: Phase II clinical test: Korean version of modified Rankin Scale (K-mRS) at day 90; assay type: in vivo, human
Procedure: (§1) A multi-organ, randomly allocated, double-blind, placebo-controlled, and initial phase II clinical test was conducted on patients with acute ischemic stroke to explore and evaluate the efficacy and safety of the study drug, respectively. This clinical test includes a total of three cohorts, and test subject registration starts from Cohort 1, and when the safety is secured, Cohort 2 is sequentially registered. The registration of Cohort 2 proceeds when the safety is secured after evaluation by the Data Safety Monitoring Board (DSMB) at the time point when all the test subjects of Cohort 1 completed Visit 5 (Day 29). Cohorts 1 and 2 are for confirming the safety and efficacy of the test drug, and based on this, the dose and dosage regimen, and the like of Cohort 3 are determined.
(§2) This clinical test is conducted on patients with modified thrombolysis in cerebral infarction (mTICI) 2b or 3 grade reperfusion in angiography after endovascular recanalization therapy (ERT) among patients with severe ischemic stroke in moderate cases confirmed to have undergone acute cerebral artery occlusion of the anterior circulation system. Intravenous tissue plasminogen activator (IV tPA) intravenous administration is permitted when the stroke is indicated before ERT. Furthermore, when angiography is performed for ERT after intravenous tPA administration, patients who have already undergone mTICI 2b-3 reperfusion by a venous tPA effect alone before ERT also become a subject of the clinical test.
(§3) The following Cohorts 1 to 3 are administered using an infusion pump after mixing a test drug or control drug with an infusion solution.
(§4) Cohort 1. Low-Dose Administration Group • Test drug group: administration of the test drug is started within 30 minutes after reperfusion is confirmed within 6 hours after the onset of the symptom. Immediately after intravenous administration (bolus) of 150 mg of the test drug for 15 minutes, 750 mg of the test drug is intravenously IV infused for 23 hours and 45 minutes (f2 hours). Administration of the test drug should be started within 6.5 hours after the onset of the symptom. • Control drug group: a placebo is administered in the same manner as in the test drug group.
Cohort 2. High-Dose Administration Group • Test drug group: administration of the test drug is started within 30 minutes after reperfusion is confirmed within 6 hours after the onset of the symptom. Immediately after intravenous administration (bolus) of 300 mg of the test drug for 30 minutes, 1500 mg of the test drug is intravenously IV infused for 23 hours and 30 minutes (±2 hours). Administration of the test drug should be started within 6.5 hours after the onset of the symptom. • Control drug group: a placebo is administered in the same manner as in the test drug group.
The most widely used method for evaluating disability or dependence in daily life for people who have suffered from stroke or other neurological disorders is the Korean version of a modified Rankin Scale (K-mRS). The K-mRS is a global functional outcome scale which evaluates disability due to stroke and is the most universally used scale in stroke clinical tests. The K-mRS distribution shift analysis is a method of comparing the overall prognosis of the test group and the control group, and is the most recommended analysis method in clinical tests for acute stroke treatment methods including neuroprotective agents. The K-mRS is a scale of evaluating the patient's global functionality according to the independence of daily life and the degree to which the patient needs others' help, and is divided into 0 to 6 phases (0: normal, 5: severe disability, and 6: death). At the time points of days 29 and 90, a proportion of the K-mRS score evaluated by the evaluator is presented, and the pre-mRS evaluated at the time of screening is used as basic disease information. […]

[2] = test system: patients with acute ischemic stroke; test: Phase II clinical test: change ratio of cerebral infarction lesion (MRI, day 4 vs baseline); assay type: in vivo, human
Procedure: as §1, §2, §3, §4
Diffusion weighted imaging (DWI) and gradient-recalled echo (GRE) or susceptibility weighted imaging (SWI), and magnetic resonance imaging (MRI) examination are performed within 90 minutes after reperfusion while administering a medicine for a clinical test, and this is utilized as a baseline result. A change ratio of cerebral infarction lesion at a time point of day 4 compared to the baseline was measured.
For comparison between a test group and the placebo, a two sample t-test is used after log conversion of an evaluation variable (infarct growth ratio). Additionally, a comparison between the test group and the placebo is made using a Wilcoxon rank sum test for a source data log which is not log-converted.
When factors that may affect prognosis should be corrected, analysis of covariance (ANCOVA) is used after log conversion of the evaluation variables (infarct growth ratio).
In patients who were administered a control drug or a test drug, the change ratio of cerebral infarction lesions among patients with similar baselines of cerebral infarction lesions was confirmed (Table 3).

[3] = Cohort 1 (150 mg bolus + 750 mg infusion), n = 9
[4] = Cohort 2 (300 mg bolus + 1500 mg infusion), n = 6
[5] = Cohort 1, day 4 compared to baseline, individual patients 2, 4, 6, 8, dihydrochloride

## CCOc1cc(CN2CCOCC2)cc2[nH]c(=O)c3c(c12)NCCC3.Cl.Cl [Test drug, 10-ethoxy-8-(morpholinomethyl)-1,2,3,4-tetrahydrobenzo[h][1,6]naphthyridin-5(6H)-one dihydrochloride]
[1]; 900 mg of the test drug, day 90
  results of the K-mRS compared to control drug group: far superior
[1]; [3]
  K-mRS classification at the time point of day 90: K-mRS 0~2: 7(77.78) n(%)
  K-mRS classification at the time point of day 90: K-mRS 3~4: 2(22.22) n(%)
  K-mRS classification at the time point of day 90: K-mRS 5~6: 0 n(%)
[1]; Cohort 1 (900 mg), N = 9
  K-mRS (continuous variable) at the time point of day 90, 1st Quartile: 0.00
  K-mRS (continuous variable) at the time point of day 90, 3rd Quartile: 2.00
  K-mRS (continuous variable) at the time point of day 90, Max: 4.00
  K-mRS (continuous variable) at the time point of day 90, Mean(SD): 1.44(1.42)
  K-mRS (continuous variable) at the time point of day 90, Median: 1.00
  K-mRS (continuous variable) at the time point of day 90, Min: 0.00
[1]; Cohort 1, N = 9
  K-mRS classification at the time point of day 90: K-mRS 0: 3(33.33) n(%)
  K-mRS classification at the time point of day 90: K-mRS 1: 2(22.22) n(%)
  K-mRS classification at the time point of day 90: K-mRS 2: 2(22.22) n(%)
  K-mRS classification at the time point of day 90: K-mRS 3: 1(11.11) n(%)
  K-mRS classification at the time point of day 90: K-mRS 4: 1(11.11) n(%)
  K-mRS classification at the time point of day 90: K-mRS 5: 0 n(%)
  K-mRS classification at the time point of day 90: K-mRS 6: 0 n(%)
[1]; [4]
  K-mRS classification at the time point of day 90: K-mRS 0~2: 1(20.00) n(%)
  K-mRS classification at the time point of day 90: K-mRS 3~4: 3(60.00) n(%)
  K-mRS classification at the time point of day 90: K-mRS 5~6: 1(20.00) n(%)
[2]; Cohort 1 (150 mg bolus + 750 mg infusion), individual patients 2, 4, 6, 8, MRI within 90 minutes after reperfusion, dihydrochloride
  Cerebral infarction lesion, Baseline: 1.59 cc and 10.1 cc and 32 cc and 126.66 cc
[2]; Cohort 1 (150 mg bolus + 750 mg infusion), individual patients 2, 4, 6, 8, dihydrochloride
  Cerebral infarction lesion, Time point of day 4: 2.67 cc and 10.94 cc and 45.33 cc and 127.61 cc
[2]; [5]
  Change ratio of cerebral infarction lesion: 1.68 and 1.08 and 1.42 and 1.01
  Rate of increase in cerebral infarction lesion: 67.9% and 8.3% and 41.7% and 0.8%
[2]; patients with similar baselines, Table 3
  rate of increase in cerebral infarction lesions compared to control drug group: significantly low rate of increase in cerebral infarction lesions
